ChEMBL document CHEMBL1201862, “PubChem BioAssay data set” (2004)
Activity calls are given as the source filed them.

Assays:
[1] = tested on: HEK293; experiment: cells; details: Homo sapiens
[2] = tested on: HEK293; experiment: cells; details: Homo sapiens; remark: listed apart in the source
[3] = microbe, parasite or virus in culture; assay type: functional; details: Mycobacterium tuberculosis
[4] = tested on: HeLa; experiment: Cytotoxicity counterscreen assay for transcriptional activators of heat shock protein 70 (Hsp70). [Related pubchem assays: 1203, 1252 ]; assay type: functional; details: Homo sapiens;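 note: cells exposed to compound for 16 hours before readout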
[5] = target: T1, Mucolipin-3 (Homo sapiens, UniProt Q8TDD5); experiment: Fluorescence counterscreen assay for […] agonists: dose response cell-based high-throughput screening assay to identify agonists of the transient receptor potential channel ML3 (TRPML3). [Related pubchem assays: 1424, 1448 ]; assay type: functional
T1 sequence (Q8TDD5 whole entry): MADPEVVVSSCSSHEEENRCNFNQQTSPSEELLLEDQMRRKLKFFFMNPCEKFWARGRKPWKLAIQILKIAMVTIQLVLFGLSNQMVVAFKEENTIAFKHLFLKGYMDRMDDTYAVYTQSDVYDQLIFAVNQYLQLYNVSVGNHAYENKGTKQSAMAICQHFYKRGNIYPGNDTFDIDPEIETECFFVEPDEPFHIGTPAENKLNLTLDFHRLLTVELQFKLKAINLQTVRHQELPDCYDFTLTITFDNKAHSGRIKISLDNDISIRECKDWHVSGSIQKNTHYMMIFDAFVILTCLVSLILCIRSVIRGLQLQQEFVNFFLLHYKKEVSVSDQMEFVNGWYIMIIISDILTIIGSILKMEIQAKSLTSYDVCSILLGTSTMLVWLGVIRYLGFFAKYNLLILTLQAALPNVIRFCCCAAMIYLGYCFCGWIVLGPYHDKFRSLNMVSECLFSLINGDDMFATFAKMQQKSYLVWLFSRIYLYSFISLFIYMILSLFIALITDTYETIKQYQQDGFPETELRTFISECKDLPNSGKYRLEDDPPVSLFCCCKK

[6] = non-specific 3'UTR reporter inhibition in Clone20-Shn3RL – cell-based, Renilla luciferase, cherry-picked, counter-screen for Shn3 inhibitor project, dose response (AID 624133); assay type: functional
[7] = Vero E6 cell cytotoxicity, dose response, cytotoxicity control for non-replicating M. tuberculosis project, secondary assay (AID 492998); assay type: functional, VeroE6; details: Vero C1008
[8] = HepG2 cell cytotoxicity, dose response, cytotoxicity control for non-replicating M. tuberculosis project (AID 489018); assay type: functional; details: Mycobacterium tuberculosis
[9] = tested on: INS1; experiment: INS-1E survival protection against cytokine death – cell-based, luminescence, retest, dose response (AID 449756); assay type: functional; details: Rattus norvegicus;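 note: cell death triggered by IL-1 beta plus TNF-alpha plus IFN-gamma mixture; protective hits raise ATP signal compared with cytokine alone wells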
[10] = loss of viability in HepG2 cells – cell-based, CellTiter-Glo, cherry-picked, cytotoxicity control for Shn3 inhibitor project, dose response (AID 624134); assay type: functional
[11] = target: T2, Aryl hydrocarbon receptor (Homo sapiens, UniProt P35869); experiment: Luminescence-based cell-based high throughput dose response assay for activators of the Aryl Hydrocarbon Receptor (AHR). [Related pubchem assays: 2796 (Primary screen (AHR activators in singlicate)), 2845 (Confirmation screen (AHR activators in triplicate)), 434939 (Counterscreen (PXR activators in triplicate)), 2804 (Summary (AHR activators))]; assay type: ADME
T2 sequence (P35869 whole entry): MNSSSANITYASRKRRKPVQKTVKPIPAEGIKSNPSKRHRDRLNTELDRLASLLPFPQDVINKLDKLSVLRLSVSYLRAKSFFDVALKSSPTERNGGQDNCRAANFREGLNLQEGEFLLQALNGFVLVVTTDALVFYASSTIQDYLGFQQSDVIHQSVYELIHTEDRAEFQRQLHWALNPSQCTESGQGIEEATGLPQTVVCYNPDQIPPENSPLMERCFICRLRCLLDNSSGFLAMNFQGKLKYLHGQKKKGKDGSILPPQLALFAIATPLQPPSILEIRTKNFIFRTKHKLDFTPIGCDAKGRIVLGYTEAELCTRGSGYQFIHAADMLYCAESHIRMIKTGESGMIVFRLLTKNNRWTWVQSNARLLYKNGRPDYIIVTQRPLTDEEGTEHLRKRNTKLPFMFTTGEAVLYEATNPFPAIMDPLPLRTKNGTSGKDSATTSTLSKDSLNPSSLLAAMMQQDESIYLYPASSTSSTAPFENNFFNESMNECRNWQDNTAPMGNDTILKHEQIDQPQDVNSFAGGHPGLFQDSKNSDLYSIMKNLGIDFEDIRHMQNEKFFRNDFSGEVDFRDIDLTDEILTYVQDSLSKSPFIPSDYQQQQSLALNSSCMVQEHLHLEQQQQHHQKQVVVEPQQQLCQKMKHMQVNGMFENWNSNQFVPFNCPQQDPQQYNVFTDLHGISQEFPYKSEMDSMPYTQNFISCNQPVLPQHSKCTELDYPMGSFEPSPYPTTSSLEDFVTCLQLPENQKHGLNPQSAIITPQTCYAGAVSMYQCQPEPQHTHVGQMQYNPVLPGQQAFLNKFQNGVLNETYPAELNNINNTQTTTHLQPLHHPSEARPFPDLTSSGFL

[12] = THP-1 cell cytotoxicity, dose response, cytotoxicity control for non-replicating M. tuberculosis project (AID 489025); assay type: functional
[13] = cells; assay type: functional
[14] = target: Ion channel NompC (Danio rerio, UniProt Q7T1G6); experiment: Dose response cell-based high-throughput screening assay for agonists of the transient receptor potential channel N1 (TRPN1). [Related pubchem assays (depositor defined):AID1424, AID1448]; assay type: functional
Sequence of Ion channel NompC (Q7T1G6 whole entry): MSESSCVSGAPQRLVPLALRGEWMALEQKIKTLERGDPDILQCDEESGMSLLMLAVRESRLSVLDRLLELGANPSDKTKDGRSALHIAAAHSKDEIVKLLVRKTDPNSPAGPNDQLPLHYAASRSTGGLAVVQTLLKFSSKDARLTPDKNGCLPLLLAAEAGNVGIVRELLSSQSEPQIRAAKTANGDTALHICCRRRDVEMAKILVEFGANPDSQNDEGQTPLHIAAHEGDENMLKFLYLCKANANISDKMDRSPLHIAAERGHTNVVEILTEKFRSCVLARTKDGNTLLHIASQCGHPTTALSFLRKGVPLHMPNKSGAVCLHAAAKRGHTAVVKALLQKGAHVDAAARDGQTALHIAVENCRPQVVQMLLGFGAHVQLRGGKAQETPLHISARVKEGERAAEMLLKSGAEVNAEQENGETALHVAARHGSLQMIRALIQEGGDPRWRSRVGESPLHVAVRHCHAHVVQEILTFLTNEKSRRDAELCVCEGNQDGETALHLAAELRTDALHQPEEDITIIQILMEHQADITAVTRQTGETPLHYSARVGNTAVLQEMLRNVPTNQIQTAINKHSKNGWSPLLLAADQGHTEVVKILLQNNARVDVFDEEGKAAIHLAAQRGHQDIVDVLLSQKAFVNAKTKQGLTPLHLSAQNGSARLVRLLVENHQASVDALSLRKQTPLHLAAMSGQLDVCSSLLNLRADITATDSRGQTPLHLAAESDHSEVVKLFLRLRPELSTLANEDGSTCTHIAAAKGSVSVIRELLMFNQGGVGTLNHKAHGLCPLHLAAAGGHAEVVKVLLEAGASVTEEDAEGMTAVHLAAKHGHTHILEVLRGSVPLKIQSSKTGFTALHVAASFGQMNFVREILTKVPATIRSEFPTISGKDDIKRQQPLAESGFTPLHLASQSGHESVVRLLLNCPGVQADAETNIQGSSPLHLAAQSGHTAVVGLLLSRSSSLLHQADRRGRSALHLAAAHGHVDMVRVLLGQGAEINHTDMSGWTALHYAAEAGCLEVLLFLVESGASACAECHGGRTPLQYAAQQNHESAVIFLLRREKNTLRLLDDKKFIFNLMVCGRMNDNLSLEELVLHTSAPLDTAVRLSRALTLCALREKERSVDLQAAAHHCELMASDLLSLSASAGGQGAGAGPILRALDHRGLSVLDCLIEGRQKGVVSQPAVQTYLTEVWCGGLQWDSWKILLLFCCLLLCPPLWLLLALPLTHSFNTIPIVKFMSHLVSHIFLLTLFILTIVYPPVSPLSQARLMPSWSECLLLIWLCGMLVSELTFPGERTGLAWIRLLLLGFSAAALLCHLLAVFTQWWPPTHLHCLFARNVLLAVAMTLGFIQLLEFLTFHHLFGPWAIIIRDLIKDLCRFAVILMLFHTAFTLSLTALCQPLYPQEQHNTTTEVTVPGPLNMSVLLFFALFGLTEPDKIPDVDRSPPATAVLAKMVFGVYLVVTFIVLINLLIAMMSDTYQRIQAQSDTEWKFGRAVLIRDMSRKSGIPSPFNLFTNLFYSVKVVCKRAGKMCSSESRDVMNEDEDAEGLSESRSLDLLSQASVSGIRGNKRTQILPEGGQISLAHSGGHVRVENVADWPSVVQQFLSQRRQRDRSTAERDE

[15] = HEK-293T viability loss, compound-treated – cell-based, uHTS hits, cytotoxicity control for B/T-cell NF-kB inhibitor project, dose response (AID 489019); assay type: functional;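 note: IC50 reflects cytotoxicity as loss of cell viability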
[16] = target: Protein Wnt-3a (Mus musculus, UniProt P27467); experiment: antagonism of Wnt3a pathway luciferase reporter – Wnt-LIGHT cells, luminescence, selectivity assay for Gli-SUFU antagonist project, dose response (AID 651570); assay type: functional; details: read-out: IC50_Mean;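 note: Wnt-LIGHT reporter cells stimulated with conditioned medium from Wnt3a-producing cells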
Sequence of Protein Wnt-3a (P27467 whole entry): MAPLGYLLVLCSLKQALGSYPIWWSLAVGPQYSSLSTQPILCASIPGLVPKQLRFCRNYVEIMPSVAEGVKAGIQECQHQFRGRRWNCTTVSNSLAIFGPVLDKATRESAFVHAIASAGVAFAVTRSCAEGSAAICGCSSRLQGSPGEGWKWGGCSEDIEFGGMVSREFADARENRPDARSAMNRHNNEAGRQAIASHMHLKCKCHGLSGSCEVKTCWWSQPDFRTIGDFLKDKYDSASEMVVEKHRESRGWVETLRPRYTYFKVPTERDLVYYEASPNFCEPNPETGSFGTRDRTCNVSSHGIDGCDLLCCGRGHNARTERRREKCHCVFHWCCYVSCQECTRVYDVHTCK

[17] = target: T3, COUP transcription factor 2 (Homo sapiens, UniProt P24468); experiment: Luminescence-based cell-based high throughput dose response assay to identify inhibitors of COUP-TFII (NR2F2).; assay type: functional;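 note: HEK293 cells transiently cotransfected with COUP-TFII expression vector and reporter; luciferase reporter luminescence driven by COUP-TFII from the pX2-168 reporter plasmid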
T3 sequence (P24468 whole entry): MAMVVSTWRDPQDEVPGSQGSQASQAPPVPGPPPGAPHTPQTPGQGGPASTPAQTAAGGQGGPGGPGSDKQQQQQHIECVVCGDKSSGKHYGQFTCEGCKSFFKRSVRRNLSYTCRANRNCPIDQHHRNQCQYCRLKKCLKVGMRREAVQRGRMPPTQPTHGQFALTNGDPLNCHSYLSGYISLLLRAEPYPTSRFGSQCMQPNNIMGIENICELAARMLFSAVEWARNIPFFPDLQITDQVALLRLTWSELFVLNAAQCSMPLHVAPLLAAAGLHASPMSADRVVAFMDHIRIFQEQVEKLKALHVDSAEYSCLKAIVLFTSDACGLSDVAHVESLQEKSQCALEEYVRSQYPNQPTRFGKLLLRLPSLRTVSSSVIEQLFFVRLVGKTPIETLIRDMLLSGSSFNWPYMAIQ

[18] = reduction of Shn3 3'UTR-driven luciferase in osteoblasts – cell-based, Clone20 osteoblasts, firefly luciferase, cherry-picked, dose response (AID 624132); assay type: functional;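 note: firefly luciferase luminescence from reporter carrying the Shn3 3'UTR in osteoblasts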
[19] = tested on: Jurkat; experiment: blockers of NF-kB activation in T cells – Jurkat, luciferase reporter, luminescence, B- and T-cell, dose response (AID 489004); assay type: functional, cell-based; details: Homo sapiens;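 note: NF-kB luciferase reporter Jurkat cells stimulated with PMA plus ionomycin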

SMILES | EC50 [1] | EC50 [2] | CC50 [3] | CC50 [4] | EC50 [5] | AC50 [6] | CC50 [7] | CC50 [8] | AC50 [9] | AC50 [10] | EC50 [11] | CC50 [12] | IC50 [13] | EC50 [14] | IC50 [15] | IC50 [16] | IC50 [17] | AC50 [18] | IC50 [19]
Cc1cc(NC(=O)CSc2nc(C(C)C)nc3sc(C)c(C)c23)no1 | > 59.7 µM (inactive) | > 59.7 µM (inactive) | – | – | – | – | – | – | – | – | – | – | – | – | – | – | – | – | –
CC(=O)Nc1sc2c(c1-c1nc3ccccc3s1)CCN(C(C)C)C2 | > 59.6 µM (inactive) | > 2.21 µM (active) | 2.94 µM (active) | 9.92 µM (active) | > 29.9 µM (not active) | 20.1 µM (active) | 3.05 µM (active) | 7.58 µM (active) | 1.77 µM (active) | 4.53 µM (active) | > 1.13 µM (active) | 3.78 µM (active) | 5.98 µM (active) | 25.1 µM (inactive) | – | – | – | – | –
CCOC(=O)C1CCCN(S(=O)(=O)c2ccc(S(=O)(=O)N(CC)CC)cc2)C1 (stereo not drawn) | – | – | – | – | – | 0.801 µM (active) | – | – | 2.6 µM (active) | – | – | – | – | – | > 80 µM (inactive) | 0.236 µM (active) | 4.75 µM (active) | 0.512 µM (active) | > 80 µM (inactive)
